# Literature values, collected in US20230111190A1, “ORAL COMPOSITIONS WITH IMPROVED BIOAVAILABILITY AND METHODS OF MAKING THE SAME” (Nulixir Inc., priority 2021, published 2023).
# Tested on: not given
# Details: n-octanol and water; categorization at pH = 7 unless stated otherwise
row,Compound,logP
1,tortuosomine,~3
2,COc1cc([C@H]2Oc3cc(O)c4c(=O)c(O)c(-c5ccc(O)cc5)oc4c3O[C@@H]2CO)ccc1O [rhodiolin],~2
3,CC(=O)OC1C=CC(=O)N(C(=O)CCc2ccccc2)C1 (centres unmarked) [pipermethystine],~1.8
4,CCNC(=O)CC[C@H](N)C(=O)O [L-theanine],~-3
5,COc1ccc(/C=C/c2cc(OC)cc(=O)o2)cc1 [yangonin],~2.8
6,herinacine A,~2.5
7,COc1cc(/C=C\c2ccc(OC)c(O)c2)oc(=O)c1 [11-hydroxyyangonin],~2.2
8,schisandroside C,~1.6
9,bacopaside B,~2.8
10,N#C[C@@]1(O[C@@H]2O[C@H](CO)[C@@H](O)[C@H](O)[C@H]2O)C=C[C@@H](O)C1 [tetraphyllin B],~-2.5
11,"COc1ccc(CCc2cc(OC)cc(=O)o2)cc1 [7,8-dihydroyangonin]",~2.9
12,CC(C)=C[C@@H]1CO[C@]23C[C@]4(CO2)[C@H](CC[C@@H]2[C@@]5(C)CC[C@H](O[C@@H]6OC[C@H](O)[C@H](O[C@@H]7O[C@H](CO)[C@@H](O)[C@H](O)[C@H]7O)[C@H]6O[C@@H]6O[C@@H](CO)[C@H](O)[C@H]6O)C(C)(C)[C@@H]5CC[C@]24C)[C@H]3[C@@]1(C)O [bacopasaponin C],~2
13,Cn1c(=O)c2c(n(C)c1=O)n(C)c(=O)n2C [theacrine],~-1.06
14,hericerin,~6.4
15,COc1cc(O)c2c(=O)c(OC)c(-c3ccc(O)cc3)oc2c1 [kumatakenin],~2.5
16,COc1cc2c(c(OC)c1OC)-c1c(cc(OC)c(OC)c1OC)C[C@](C)(O)[C@@H](C)C2 [schisandrol A],~3.4
17,COc1ccc([C@@]23CCC(=O)C[C@@H]2N(C)CC3)cc1OC [mesembrine],~1.5
18,COc1cc2c(c(OC)c1OC)-c1c(cc(OC)c(OC)c1OC)C[C@H](C)[C@H](C)C2 [(-)-schisandrin A],~3.6
19,N[C@@H](Cc1ccccc1)C(=O)O [L-phenylalanine],~-1.38
20,CC(C)=C[C@H]1C[C@](C)(O)[C@H]2[C@H]3CC[C@@H]4[C@@]5(C)CC[C@H](O[C@@H]6O[C@H](CO)[C@@H](O)[C@H](O[C@@H]7O[C@H](CO)[C@@H](O)[C@H](O)[C@H]7O)[C@H]6O[C@@H]6O[C@@H](CO)[C@H](O)[C@H]6O)C(C)(C)[C@@H]5CC[C@@]4(C)[C@@]34CO[C@@]2(C4)O1 [bacoside A3],~2.1

row,Compound,logP
1,"COc1cc2c(c(OC)c1OC)-c1c(cc3c(c1OC)OCO3)CC(C)C(C)C2 (single isomer, unassigned; (-)) [(-)-schisandrin B]",~4
2,(R)-kawain,~2.7
3,Cn1cnc2c1c(=O)[nH]c(=O)n2C [theobromine],~-0.78
4,"COC1=CC(=O)OC(/C=C/c2ccc(OC)cc2)C1 (centres unmarked) [5,6-dihydroyangonin]",~2.5
5,COc1ccc(C23C=CC(O)CC2N(C)CC3)cc1OC (centres unmarked) [mesembrenol],~2.4
6,COc1ccc([C@@]23C=CC(=O)C[C@@H]2N(C)CC3)cc1OC [mesembrenone],~1.3
7,"N[C@@H](Cc1c[nH]c2ccc(O)cc12)C(=O)O [5-HTP, 5-hydroxytryptophan]",~-2
8,COc1cc2c(c(OC)c1OC)-c1c(cc(OC)c(OC)c1OC)C[C@](C)(O)[C@@H](C)C2 [(+)-schisandrin],~5
9,"NCCCC(=O)O [GABA, gamma-aminobutyric acid]",~-3
10,"COC1=CC(=O)O[C@@H](CCc2ccc3c(c2)OCO3)C1 [7,8-dihydromethysticin]",~2.2
11,CC(C)=C[C@H]1C[C@](C)(O)[C@@H]2[C@H]3CC[C@@H]4[C@@]5(C)CC[C@H](O[C@@H]6OC[C@H](O)[C@H](O[C@@H]7O[C@H](CO)[C@@H](O)[C@H](O)[C@H]7O)[C@H]6O[C@@H]6O[C@@H](CO)[C@H](O)[C@H]6O)C(C)(C)[C@@H]5CC[C@@]4(C)[C@@]34CO[C@@]2(C4)O1 [bacopaside X],~2.2
12,CC1=C(CO)C(=O)O[C@@H]([C@@H](C)[C@H]2CC[C@H]3[C@@H]4C[C@H](Cl)[C@]5(O)[C@@H](O)C=CC(=O)[C@]5(C)[C@H]4CC[C@]23C)C1 [6a-chloro-5b-hydroxywithaferin A],~3.2
13,"COc1cc(/C=C/c2ccccc2)oc(=O)c1 [5,6-dehydrokawain]",~2.9
14,"O=C(O)c1cc(C(=O)O)c2c(n1)C(=O)C(=O)c1cc(C(=O)O)[nH]c1-2 [PQQ, pyrroloquinoline quinone]",~0.4
15,CC(/C=C/C=C(\C)C(=O)O[C@@H]1O[C@H](CO[C@@H]2O[C@H](CO)[C@@H](O)[C@H](O)[C@H]2O)[C@@H](O)[C@H](O)[C@H]1O)=C\C=C\C=C(C)\C=C\C=C(/C)C(=O)O[C@@H]1O[C@H](CO[C@@H]2O[C@H](CO)[C@@H](O)[C@H](O)[C@H]2O)[C@@H](O)[C@H](O)[C@H]1O [alpha-crocin],~-1.5
16,CC(C)=CCC[C@](C)(O[C@@H]1O[C@H](CO)[C@@H](O)[C@H](O)[C@H]1O)[C@H]1CC[C@]2(C)[C@@H]1[C@H](O)C[C@@H]1[C@@]3(C)CC[C@H](O)C(C)(C)[C@@H]3[C@@H](O[C@@H]3O[C@H](CO)[C@@H](O)[C@H](O)[C@H]3O)C[C@]12C [ginsenoside rg1],~0.8
17,COc1nc2c(c(=O)n1C)n(C)c(=O)n2C [methylliberine],~-0.083
18,CC(C)=CCC[C@](C)(O[C@@H]1O[C@H](CO[C@@H]2O[C@H](CO)[C@@H](O)[C@H](O)[C@H]2O)[C@@H](O)[C@H](O)[C@H]1O)[C@H]1CC[C@]2(C)[C@@H]1[C@H](O)C[C@@H]1[C@@]3(C)CC[C@H](O[C@@H]4O[C@H](CO)[C@@H](O)[C@H](O)[C@H]4O[C@@H]4O[C@H](CO)[C@@H](O)[C@H](O)[C@H]4O)C(C)(C)[C@@H]3CC[C@]12C [ginsenoside rb1],~-1
19,O=C(/C=C/c1ccccc1)N1CCCC1 [(E)-1-cinnamoylpyrrolidine],~2.2
20,(-)-schisandrin C,~3.5

# Tested on: not given
# Details: dependence on water content
row,Compound,solubility in ethanol
1,COc1ccc2cc3[n+](cc2c1OC)CCc1cc2c(cc1-3)OCO2 [berberine],decreases rapidly with water content

# Tested on: not given
# Details: one study estimated
Compound,affected by first-pass digestion,bioavailability lost to hepatic metabolism,not absorbed and eliminated via feces
COc1ccc2cc3[n+](cc2c1OC)CCc1cc2c(cc1-3)OCO2 [berberine],43%,minimal amount,56%

# Tested on: not given
# Details: in vivo
Compound,absorbed via the lymphatic system,absorbed via the portal vein
CCCCCCCC/C=C\CCCCCCCC(=O)O [oleic acid],85%,15%

# Tested on: many strains of fungi
# Details: not given
row,Compound,antifungal inhibitory activity
1,O=CC=Cc1ccccc1 [Cinnamaldehyde],strong inhibitory activity
